Laboratory results: patent publication US6096930A, “Herbicidal cyclohexane-1,3-dione derivatives and their preparation process” (Korea Research Institute of Chemical Technology, priority 1994, dated 2000)
Read-outs that look alike come from different tables or passages of the source.

How the values were obtained:
Assay type in all cases: in vivo
ORYSA [1] = experiment: Herbicidal activity for paddy test; conditions: for plant injury at 2 g/ha: 0.002 kg/ha; for plant injury at 8 g/ha: 0.008 kg/ha; for plant injury at 31 g/ha: 0.031 kg/ha; for plant injury at 125 g/ha: 0.125 kg/ha; for plant injury at 500 g/ha: 0.500 kg/ha
Outline: (§1)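 Scores are visual estimates of percent control (0, no effect; 100, plants completely killed), recorded on species planted in furrows in sterilized sandy loam held in 115 cm^2 paddy pots.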

MOOVA = experiment: Herbicidal activity for paddy test
Outline: as §1

SAGPY = experiment: Herbicidal activity for paddy test
Outline: as §1

ECHOR [2] = experiment: Herbicidal activity for paddy test
Outline: as §1

SCPJU = experiment: Herbicidal activity for paddy test
Outline: as §1

BROJA = experiment: Herbicidal activity, upland test, post-emergence
Source text: (§2) The sterilized sandy loam soil is filled in test pot having a surface area of 348 cm^2 for upland test conditions or 115 cm^2 for paddy test species were planted in furrows.
(§3) The pots for the post-emergent tests were placed in a greenhouse and watered for 9~14 days, then the foliage of test plants was sprayed with a solution of the test compound in a mixture of acetone and water containing a small amount of Tween 20.
(§4) After spraying the plants were kept for one day, then watered regularly for 14 to 21 days, and herbicidal activity data were recorded.
(§5) The herbicidal activity data were taken visually by percent control, wherein 0 signifies no herbicidal effect and 100 signifies complete kill.

ZEAMX [3] = experiment: Herbicidal activity, upland test, post-emergence
Source text: as §2, §3, §4, §5

TRZAW = experiment: Herbicidal activity, upland test, post-emergence
Source text: as §2, §3, §4, §5

GLXMX [4] = experiment: Herbicidal activity, upland test, post-emergence
Source text: as §2, §3, §4, §5

ORYSA [5] = experiment: Herbicidal activity, upland test, post-emergence
Source text: as §2, §3, §4, §5

AESIN = experiment: Herbicidal activity, upland test, post-emergence
Source text: as §2, §3, §4, §5

ABUTH [6] = experiment: Herbicidal activity, upland test, post-emergence
Source text: as §2, §3, §4, §5

DIGSA = experiment: Herbicidal activity, upland test, post-emergence
Source text: as §2, §3, §4, §5

SORBI = experiment: Herbicidal activity, upland test, post-emergence
Source text: as §2, §3, §4, §5

SOLNI = experiment: Herbicidal activity, upland test, post-emergence
Source text: as §2, §3, §4, §5

ECHOR [7] = experiment: Herbicidal activity, upland test, post-emergence
Source text: as §2, §3, §4, §5

GOSHI = experiment: Herbicidal activity, upland test, post-emergence
Source text: as §2, §3, §4, §5

PANDI [8] = experiment: Herbicidal activity, upland test, post-emergence
Source text: as §2, §3, §4, §5

ZEAMX [9] = experiment: Herbicidal activity, upland test, pre-emergence
Experimental: as §2
(§6) For the pre-emergent tests, were sprayed on the soil one day after planting test compound in a mixture of acetone and 7 ml of the water containing up to 0.1% Tween 20.
(§7) The concentration of the test compound in solution was varied to give a range of application rates, generally 4.0 kg/ha and submultiples thereof. The pots were placed in a greenhouse and watered regularly at the soil surface for 21 days and herbicidal effects were visually rated by a percent control.
as §5

GLXMX [10] = experiment: Herbicidal activity, upland test, pre-emergence
Experimental: as §2, §6, §7, §5

ABUTH [11] = experiment: Herbicidal activity, upland test, pre-emergence
Experimental: as §2, §6, §7, §5

ECHOR [12] = experiment: Herbicidal activity, upland test, pre-emergence
Experimental: as §2, §6, §7, §5

PANDI [13] = experiment: Herbicidal activity, upland test, pre-emergence
Experimental: as §2, §6, §7, §5

[14] = 3 Leaf, read-out: Herbicidal activity, ORYSA (3 Leaf)
[15] = seed, read-out: Herbicidal activity, ORYSA (seed)

CCCC(=NOC)C1=C(O)CC(c2c(C)c(C)c3c(c2C)CC(C)(C)C3)CC1=O (stereo not drawn) [Compound 6]
plant injury at 2 g/ha (ORYSA [1]; [14]): 0%
plant injury at 8 g/ha (ORYSA [1]; [14]): 0%
plant injury at 31 g/ha (ORYSA [1]; [14]): 0%
plant injury at 125 g/ha (ORYSA [1]; [14]): 20%
plant injury at 500 g/ha (ORYSA [1]; [14]): 65%
plant injury at 2 g/ha (ORYSA [1]; [15]): 0%
plant injury at 8 g/ha (ORYSA [1]; [15]): 0%
plant injury at 31 g/ha (ORYSA [1]; [15]): 100%
plant injury at 125 g/ha (ORYSA [1]; [15]): 100%
plant injury at 500 g/ha (ORYSA [1]; [15]): 100%
pest or weed control at 2 g/ha (MOOVA; 0.002 kg/ha): 0%
pest or weed control at 8 g/ha (MOOVA; 0.008 kg/ha): 0%
pest or weed control at 31 g/ha (MOOVA; 0.031 kg/ha): 0%
pest or weed control at 125 g/ha (MOOVA; 0.125 kg/ha): 0%
pest or weed control at 500 g/ha (MOOVA; 0.500 kg/ha): 0%
pest or weed control at 2 g/ha (SAGPY; 0.002 kg/ha): 0%
pest or weed control at 8 g/ha (SAGPY; 0.008 kg/ha): 0%
pest or weed control at 31 g/ha (SAGPY; 0.031 kg/ha): 0%
pest or weed control at 125 g/ha (SAGPY; 0.125 kg/ha): 0%
pest or weed control at 500 g/ha (SAGPY; 0.500 kg/ha): 40%
pest or weed control at 2 g/ha (ECHOR [2]; 0.002 kg/ha): 0%
pest or weed control at 8 g/ha (ECHOR [2]; 0.008 kg/ha): 60%
pest or weed control at 31 g/ha (ECHOR [2]; 0.031 kg/ha): 100%
pest or weed control at 125 g/ha (ECHOR [2]; 0.125 kg/ha): 100%
pest or weed control at 500 g/ha (ECHOR [2]; 0.500 kg/ha): 100%
pest or weed control at 2 g/ha (SCPJU; 0.002 kg/ha): 0%
pest or weed control at 8 g/ha (SCPJU; 0.008 kg/ha): 0%
pest or weed control at 31 g/ha (SCPJU; 0.031 kg/ha): 0%
pest or weed control at 125 g/ha (SCPJU; 0.125 kg/ha): 0%
pest or weed control at 500 g/ha (SCPJU; 0.500 kg/ha): 0%
Herbicidal activity, BROJA (BROJA; 0.016 kg/ha): 0 % inhibition
Herbicidal activity, BROJA (BROJA; 0.063 kg/ha): 30 % inhibition
Herbicidal activity, BROJA (BROJA; 1.000 kg/ha): 100 % inhibition
Herbicidal activity, BROJA (BROJA; 1.250 kg/ha): 70 % inhibition
Herbicidal activity, ZEAMX (ZEAMX [3]; 0.016 kg/ha): 0 % inhibition
Herbicidal activity, ZEAMX (ZEAMX [3]; 0.063 kg/ha): 60 % inhibition
Herbicidal activity, ZEAMX (ZEAMX [3]; 1.000 kg/ha): 100 % inhibition
Herbicidal activity, ZEAMX (ZEAMX [3]; 1.250 kg/ha): 100 % inhibition
Herbicidal activity, TRZAW (TRZAW; 0.016 kg/ha): 0 % inhibition
Herbicidal activity, TRZAW (TRZAW; 0.063 kg/ha): 30 % inhibition
Herbicidal activity, TRZAW (TRZAW; 1.000 kg/ha): 100 % inhibition
Herbicidal activity, TRZAW (TRZAW; 1.250 kg/ha): 50 % inhibition
Herbicidal activity, GLXMX (GLXMX [4]; 0.016 kg/ha): 0 % inhibition
Herbicidal activity, GLXMX (GLXMX [4]; 0.063 kg/ha): 0 % inhibition
Herbicidal activity, GLXMX (GLXMX [4]; 1.000 kg/ha): 60 % inhibition
Herbicidal activity, GLXMX (GLXMX [4]; 1.250 kg/ha): 20 % inhibition
Herbicidal activity, ORYSA (ORYSA [5]; 0.016 kg/ha): 0 % inhibition
Herbicidal activity, ORYSA (ORYSA [5]; 0.063 kg/ha): 30 % inhibition
Herbicidal activity, ORYSA (ORYSA [5]; 1.000 kg/ha): 100 % inhibition
Herbicidal activity, ORYSA (ORYSA [5]; 1.250 kg/ha): 70 % inhibition
Herbicidal activity, AESIN (AESIN; 0.016 kg/ha): 0 % inhibition
Herbicidal activity, AESIN (AESIN; 0.063 kg/ha): 0 % inhibition
Herbicidal activity, AESIN (AESIN; 1.000 kg/ha): 20 % inhibition
Herbicidal activity, AESIN (AESIN; 1.250 kg/ha): 0 % inhibition
Herbicidal activity, ABUTH (ABUTH [6]; 0.016 kg/ha): 0 % inhibition
Herbicidal activity, ABUTH (ABUTH [6]; 0.063 kg/ha): 0 % inhibition
Herbicidal activity, ABUTH (ABUTH [6]; 1.000 kg/ha): 30 % inhibition
Herbicidal activity, ABUTH (ABUTH [6]; 1.250 kg/ha): 0 % inhibition
Herbicidal activity, DIGSA (DIGSA; 0.016 kg/ha): 60 % inhibition
Herbicidal activity, DIGSA (DIGSA; 0.063 kg/ha): 100 % inhibition
Herbicidal activity, DIGSA (DIGSA; 1.000 kg/ha): 100 % inhibition
Herbicidal activity, DIGSA (DIGSA; 1.250 kg/ha): 100 % inhibition
Herbicidal activity, SORBI (SORBI; 0.016 kg/ha): 0 % inhibition
Herbicidal activity, SORBI (SORBI; 0.063 kg/ha): 30 % inhibition
Herbicidal activity, SORBI (SORBI; 1.000 kg/ha): 70 % inhibition
Herbicidal activity, SORBI (SORBI; 1.250 kg/ha): 50 % inhibition
Herbicidal activity, SOLNI (SOLNI; 0.016 kg/ha): 0 % inhibition
Herbicidal activity, SOLNI (SOLNI; 0.063 kg/ha): 0 % inhibition
Herbicidal activity, SOLNI (SOLNI; 1.000 kg/ha): 30 % inhibition
Herbicidal activity, SOLNI (SOLNI; 1.250 kg/ha): 0 % inhibition
Herbicidal activity, ECHOR (ECHOR [7]; 0.016 kg/ha): 70 % inhibition
Herbicidal activity, ECHOR (ECHOR [7]; 0.063 kg/ha): 100 % inhibition
Herbicidal activity, ECHOR (ECHOR [7]; 1.000 kg/ha): 100 % inhibition
Herbicidal activity, ECHOR (ECHOR [7]; 1.250 kg/ha): 100 % inhibition
Herbicidal activity, GOSHI (GOSHI; 0.016 kg/ha): 0 % inhibition
Herbicidal activity, GOSHI (GOSHI; 0.063 kg/ha): 30 % inhibition
Herbicidal activity, GOSHI (GOSHI; 1.000 kg/ha): 50 % inhibition
Herbicidal activity, GOSHI (GOSHI; 1.250 kg/ha): 40 % inhibition
Herbicidal activity, PANDI (PANDI [8]; 0.016 kg/ha): 40 % inhibition
Herbicidal activity, PANDI (PANDI [8]; 0.063 kg/ha): 100 % inhibition
Herbicidal activity, PANDI (PANDI [8]; 1.000 kg/ha): 100 % inhibition
Herbicidal activity, PANDI (PANDI [8]; 1.250 kg/ha): 100 % inhibition
Herbicidal activity, ZEAMX (ZEAMX [9]; 0.016 kg/ha): 0 % inhibition
Herbicidal activity, ZEAMX (ZEAMX [9]; 0.063 kg/ha): 0 % inhibition
Herbicidal activity, ZEAMX (ZEAMX [9]; 1.000 kg/ha): 40 % inhibition
Herbicidal activity, ZEAMX (ZEAMX [9]; 1.250 kg/ha): 0 % inhibition
Herbicidal activity, GLXMX (GLXMX [10]; 0.016 kg/ha): 0 % inhibition
Herbicidal activity, GLXMX (GLXMX [10]; 0.063 kg/ha): 0 % inhibition
Herbicidal activity, GLXMX (GLXMX [10]; 1.000 kg/ha): 0 % inhibition
Herbicidal activity, GLXMX (GLXMX [10]; 1.250 kg/ha): 0 % inhibition
Herbicidal activity, ABUTH (ABUTH [11]; 0.016 kg/ha): 0 % inhibition
Herbicidal activity, ABUTH (ABUTH [11]; 0.063 kg/ha): 0 % inhibition
Herbicidal activity, ABUTH (ABUTH [11]; 1.000 kg/ha): 0 % inhibition
Herbicidal activity, ABUTH (ABUTH [11]; 1.250 kg/ha): 0 % inhibition
Herbicidal activity, ECHOR (ECHOR [12]; 0.016 kg/ha): 0 % inhibition
Herbicidal activity, ECHOR (ECHOR [12]; 0.063 kg/ha): 0 % inhibition
Herbicidal activity, ECHOR (ECHOR [12]; 1.000 kg/ha): 100 % inhibition
Herbicidal activity, ECHOR (ECHOR [12]; 1.250 kg/ha): 50 % inhibition
Herbicidal activity, PANDI (PANDI [13]; 0.016 kg/ha): 0 % inhibition
Herbicidal activity, PANDI (PANDI [13]; 0.063 kg/ha): 80 % inhibition
Herbicidal activity, PANDI (PANDI [13]; 1.000 kg/ha): 100 % inhibition
Herbicidal activity, PANDI (PANDI [13]; 1.250 kg/ha): 100 % inhibition
